Values quoted from earlier work in US10392669B2, “Methods and systems for determination of an effective therapeutic regimen and drug discovery” (DNA-SEQ, INC., priority 2014, dated 2019).
Entries after “also recorded” stand apart in the source; their conditions may differ.

Key:
[1] = test system: catalytic cores of kinases; conditions: cancer patients, bracketed literature reference; for Activating Mutations: known activating mutations within the kinase catalytic core listed for the drug; for Resistant Mutations: known resistance mutations within the kinase catalytic core listed for the drug
kinase DFG motif = conditions: crystal structure library
ERBB2 T798I = ERBB2 T798I (Homo sapiens, UniProt P04626, T798I); conditions: Gene ERBB2, Mutation T798I; full finding: Not reported to be in a before/after study, but does cause drug resistance

SMILES	Activating Mutations [1]	Resistant Mutations [1]	other results
COc1cc2nccc(Oc3ccc(NC(=O)NC4CC4)c(Cl)c3)c2cc1C(N)=O [Lenvatinib]	RET: C634W, M918T [19]	–	–
C=CC(=O)Nc1cc(Nc2nccc(-c3cn(C)c4ccccc34)n2)c(OC)cc1N(C)CCN(C)C [Osimertinib]	EGFR: T790M [20]	–	–
C#Cc1cccc(Nc2ncnc3cc(OCCOC)c(OCCOC)cc23)c1 [Erlotinib]	EGFR: L858R [12]	–	–
Cc1cn(-c2cc(NC(=O)c3ccc(C)c(Nc4nccc(-c5cccnc5)n4)c3)cc(C(F)(F)F)c2)cn1 [Nilotinib]	BCR/ABL: F317L [3]	–	DFG conformation bound (kinase DFG motif): binds the DFG out conformation
CS(=O)(=O)CCNCc1ccc(-c2ccc3ncnc(Nc4ccc(OCc5cccc(F)c5)c(Cl)c4)c3c2)o1 [Lapatinib]	–	HER2: L755S [18]	Finding (ERBB2 T798I): Not reported to be in a before/after
O=C(c1ccc(F)c(F)c1Nc1ccc(I)cc1F)N1CC(O)([C@@H]2CCCCN2)C1 [Cobimetinib]	Braf: V600 mutation [9]	–	–
CNC(=O)c1cc(Oc2ccc(NC(=O)Nc3ccc(Cl)c(C(F)(F)F)c3)cc2)ccn1 [Sorafenib]	PDGFRA: T674I [26]	FIP1LI-PDGFRA: D842V	–
Cc1ccc(NC(=O)c2ccc(CN3CCN(C)CC3)cc2)cc1Nc1nccc(-c2cccnc2)n1 [Imatinib]	–	KIT: T670I; also recorded: ABL: T315I [17]	–
COc1cc2ncnc(Nc3ccc(F)c(Cl)c3)c2cc1OCCCN1CCOCC1 [Gefitinib]	EGFR: L858R, L861Q [14]	–	–
C[C@@H](Oc1cc(-c2cnn(C3CCNCC3)c2)cnc1N)c1c(Cl)ccc(F)c1Cl [Crizotinib]	ALK: I117IN, R1275Q [10]	–	–
